Reference: patent publication EP0211457A2, “Novel (4-substituted-piperazinyl)pyridazines” (JANSSEN PHARMACEUTICA N.V., priority 1985, dated 1987)
Where a name gives a salt, the structure may show the parent alone.

Columns and labels:
Wistar rats = test: Acetic Acid-Induced Writhing in Rats Test; format: in vivo; settings: Rattus norvegicus, ip, 0.5 ml 1% acetic acid i.p., compound given 15 min after acetic acid, writhes counted 60-75 min after acetic acid, dose reducing to less than 16 writhes in 50% of the animals, read-out: Writhing in Rats Test ED50 in mg/kg body weight
Method: The Acetic Acid-Induced Writhing in Rats Test is known to be a useful tool for the evaluation of the analgesic properties of given test compound (see in connection herewith Drug Research, 25, 1505-1509 (1975)).
Wistar rats weighing about 100g were used throughout. They were injected i.p. with 0.5 ml of a 1% aqueous solution of acetic acid and placed in individual glass containers for observation. […] 5 Min. later (15 min. after the acetic acid treatment) the test compound was administered. […] The lowest effective dose in 50% of the test animals (ED₅₀) was determined as that dose in mg/kg body weight capable of reducing the number of writhes during the 15 minutes observation period to less than 16 writhes in 50% of the tested animals.
Said ED₅₀ values for a number of compounds having the formula (I) and the pharmaceutically acceptable acid-addition salts thereof are gathered in Table 1.

Male Wistar rats = test: Tail Withdrawal Test; format: in vivo; settings: Rattus norvegicus, iv, tail immersed in water at 55°C, dose suppressing the tail withdrawal response for more than 10 seconds in 50% of the animals, read-out: Tail Witdrawal Test ED50 in mg/kg body weight
Method: Male Wistar rats weighing 200g ± 5g were fasted overnight, water being available at libitum. Aqueous solutions, made isotonic with sodium chloride, of the test compounds at various concentrations were administered to the test animals intraveneously (i.v.). The thus treated rats were put into individual restraining cages. At various time periods after administration, the lower 5 cm portion of the tail was immersed into a cup filled with water at a constant temperature of 55°C. The typical tail withdrawal response was evaluated during a 10 sec. period after the immersion. ED₅₀ values in mg/kg body weight were determined as that dose of the test compound capable of suppressing in 50% of the tested animals the typical tail withdrawal response during a time period exceeding 10 seconds. Said ED₅₀ values for a number of compounds having the formula (I) and the pharma- ceutically acceptable acid-addition salts thereof are gathered in Table 1.

| Compound | ED50 (Wistar rats) [mg/kg] | ED50 (Male Wistar rats) [mg/kg] |
| --- | --- | --- |
| Clc1ccc(N2CCN(C/C=C/c3cccs3)CC2)nn1 [compound 12] | 10 |  |
| COc1ccc(/C=C/CN2CCN(c3cccnn3)CC2)cc1 [compound 18] | 40 |  |
| C(=C\c1ccccc1)/CN1CCCN(c2ccc(-c3ccccc3)nn2)CC1 [compound 19] | 10 |  |
| C(=C\c1ccccc1)/CN1CCN(c2cccnn2)CC1 [compound 8] | 2.5 |  |
| COc1ccc(N2CCN(C/C=C/c3ccccc3)CC2)nn1 [compound 4, (E)-3-methoxy-6-[4-(3-phenyl-2-propenyl)-1-piperazinyl]pyridazine] | 5 | 40 |
| CC1CN(C/C=C/c2ccccc2)CCN1c1ccc(Cl)nn1 (centres unmarked) [compound 2, (E)-3-chloro-6-[2-methyl-4-(3-phenyl-2-propenyl)-1-piperazinyl]pyridazine monohydrochloride.hemihydrate] | 5 | 10 |
| Clc1ccc(N2CCN(C/C=C/c3ccccc3)CC2)nn1 [compound 1, (E)-3-chloro-6-[4-(3-phenyl-2-propenyl)-1-piperazinyl]pyridazine] | 5 | 20 |
| Cl.Cl.Clc1ccc(N2CCN(C/C=C/c3ccccc3)CC2)nn1 [compound 37, (E)-3-chloro-6-[4-(3-phenyl-2-propenyl)-1-piperazinyl]pyridazine dihydrochloride] | 10 | < 40 |
| [O-][N+]1(C/C=C/c2ccccc2)CCN(c2ccc(Cl)nn2)CC1 [compound 38, (E)-3-chloro-6-[4-(3-phenyl-2-propenyl)-1-piperazinyl]pyridazine, 4-oxide] | 10 | ≥ 20 |
| Fc1ccc(/C=C/CN2CCN(c3cccnn3)CC2)cc1 [compound 11] | 40 |  |
| COc1ccc(/C=C/CN2CCN(c3ccc(Cl)nn3)CC2)cc1 [compound 14] | 40 |  |
| Brc1ccc(N2CCN(C/C=C/c3ccccc3)CC2)nn1 [compound 3, (E)-3-bromo-6-[4-(3-phenyl-2-propenyl)-1-piperazinyl]pyridazine] | 10 |  |
| Fc1ccc(/C=C/CN2CCN(c3ccc(Cl)nn3)CC2)cc1 [compound 10] | 20 |  |
| Clc1ccc(N2CCCN(C/C=C/c3ccccc3)CC2)nn1 [compound 7] | 20 | 40 |
| Clc1ccc(/C=C/CN2CCN(c3ccc(Cl)nn3)CC2)cc1 [compound 5, (E)-3-chloro-6-[4-[3-(4-chlorophenyl)-2-propenyl]-1-piperazinyl]pyridazine] | 40 |  |
| COc1ccc(N2CCN(C/C=C/c3ccc(F)cc3)CC2)nn1 [compound 9] | 10 |  |
| Cc1ccc(/C=C/CN2CCN(c3ccc(Cl)nn3)CC2)cc1 [compound 13] | 40 |  |
